This note sets out measurements from patent US6288091A, “Antiherpes virus compounds and methods for their preparation and use” (Boehringer Ingelheim Ltd., priority 1999, dated 2001).

For experiment [1], the target named is T1, HSV-1 helicase-primase (Human herpesvirus 1, UniProt P10189+P10236).
T1 construct: made in house; host or cells: Sf21 insect cells triply infected with recombinant baculoviruses (UL5, UL8, UL52)
As to the kind of experiment: HSV-1 DNA-dependent ATPase assay (inhibition of HSV-1 helicase-primase). The format is biochemical. The note with it: Group 1 Table 1 entries. An excerpt: A) HSV-1 DNA-Dependent ATP Assay (an in Vitro Assay Based on the Inhibition of HSV-1 Helicase-primase).
HSV-1 helicase-primase holoenzyme was produced in triply infected Sf21 cells using recombinant baculoviruses expressing the UL5, UL8 and UL52 helicase-primase subunits, as described by S. Dracheva et al., J. Biol. Chem. 1995, 270, 14148. The crude enzyme was purified by ammonium sulfate precipitation, Source 15Q® chromatography and Sephacryl® S-300 HR gel filtration (both purification systems can be obtained from Pharmacia Biotech Inc., Montreal, Quebec, Canada), see S. Dracheva et al., supra.
The DNA-dependent ATPase assay, described by J. J. Crute et al., Nucleic Acids Res. 1988, 16, 6585, was modified and used to evaluate the capability of the compounds of Group 1-formula 1 to inhibit HSV-1 helicase-primase activity. The reaction mixtures (80 μL each) contained 40 mM 4-(2-hydroxyethyl)-1-piperazineethanesulfonic acid (HEPES, pH 7.5), 10% (v/v) glycerol, 5.5 mM MgCl2, 1 mM DL-dithiothreitol (DTT), 50 μg/mL acetylated bovine serum albumin, 3.3% (v/v) DMSO, 4 mM ATP, 25 μM single-stranded M13 DNA hybridized to double-tailed 68-mer oligonucleotide and 3 μg/mL HSV-1 helicase-primase. After incubation for 20 min at 34°, formation of inorganic phosphate from hydrolysis of ATP was monitored spectrophotometrically at 650 nm using acidic ammonium molybdate/malachite green reagent, P. A. Lanzetta et al., Anal. Biochem. 1979, 100, 95. DNA-dependent ATPase activity was calculated from the net absorbance change in the presence and absence of inhibition.

The subject of experiment [2] is HSV-1 strain F or KOS. As to the kind of experiment: Inhibition of herpes simplex virus (HSV-1) replication in cell culture (BHK-21 cells, glycoprotein C ELISA). The note with it: Human alphaherpesvirus 1, BHK-21, Group 1 Table 1 entries. The format is cell-based. How it is done:
B) Inhibition of Herpes Simplex Virus (HSV-1) Replication in Cell Culture
BHK-21 cells clone 13 (ATCC CCL10) were incubated for two days in 850 cm^2 roller bottles (2×10^7 cells/bottle) with A-MEM medium (Gibco Canada Inc., Burlington, Ontario, Canada) supplemented with 8% (v/v) fetal bovine serum (FBS, Gibco Canada, Inc.). The cells were trypsinized and then 3,000 cells in 100 μL of fresh medium were transferred into each well of a 96-well microtiter plate. The cells were incubated at […] for a period of 3 days to reach a density of 50,000 cells per well. The cells were washed twice with 100 μL of α-MEM supplemented with 2% heat inactivated FBS and incubated for 1-2 hours in 100 μL of the same medium.
Thereafter, the cells were infected with HSV-1 strain F or KOS (multiplicity of infection =0.05 PFU/cell) in 50 μL of α-MEM supplemented with 2% heat inactivated FBS. Following one hour of virus absorption at 37°, the medium was removed and the cells were washed with α-MEM supplemented with 2% heat inactivated FBS (2×100 μL). The cells were incubated with or without 100 μL of the appropriate concentration of test reagent in α-MEM medium supplemented with 2% heat inactivated FBS. After 24 hours of incubation at 37°, the extent of viral replication was determined by an ELISA assay; for instance, the following assay that detects the late glycoprotein C of HSV-1.
Cells were fixed in the microtiter plate with 100 μL of 0.063% glutaraldehyde in phosphate buffered saline for 30 min at room temperature. The microtiter plate was then washed once with casein blocking solution and blocked with 200 μL of the same solution for one hour at room temperature. Thereafter, 100 μL of mAb C11 recognizing the glycoprotein C of HSV-1 (see E. Trybala et al., Journal of General Virology, 1994, 75, 743) was added to each well for two hours at room temperature. The plate was washed three times with phosphate buffered saline containing 0.05% polyoxyethylene (20) sorbitan monooleate. The cells were incubated with 100 μL of sheep anti-mouse IgG horseradish peroxidase for one hour at room temperature in the dark.
The plate was washed three times with 200 μL of the above-noted phosphate buffer saline preparation, and then once with 0.1 M sodium citrate (pH 4.5). Thereafter, 100 μL of orthophenylenediamine dihydrochloride (OPD, Gibco, Canada Inc.) was added to each well. The plate was agitated on a microplate shaker for 30 min in the dark. Color development was monitored at 450 nm using a microplate spectrophotometer.
SAS was used to calculate % inhibition of viral replication and to generate EC50 values.
For orientation: An ELISA detects its analyte on a solid surface through an enzyme-linked reagent.

T1 sequence (P10192 whole entry): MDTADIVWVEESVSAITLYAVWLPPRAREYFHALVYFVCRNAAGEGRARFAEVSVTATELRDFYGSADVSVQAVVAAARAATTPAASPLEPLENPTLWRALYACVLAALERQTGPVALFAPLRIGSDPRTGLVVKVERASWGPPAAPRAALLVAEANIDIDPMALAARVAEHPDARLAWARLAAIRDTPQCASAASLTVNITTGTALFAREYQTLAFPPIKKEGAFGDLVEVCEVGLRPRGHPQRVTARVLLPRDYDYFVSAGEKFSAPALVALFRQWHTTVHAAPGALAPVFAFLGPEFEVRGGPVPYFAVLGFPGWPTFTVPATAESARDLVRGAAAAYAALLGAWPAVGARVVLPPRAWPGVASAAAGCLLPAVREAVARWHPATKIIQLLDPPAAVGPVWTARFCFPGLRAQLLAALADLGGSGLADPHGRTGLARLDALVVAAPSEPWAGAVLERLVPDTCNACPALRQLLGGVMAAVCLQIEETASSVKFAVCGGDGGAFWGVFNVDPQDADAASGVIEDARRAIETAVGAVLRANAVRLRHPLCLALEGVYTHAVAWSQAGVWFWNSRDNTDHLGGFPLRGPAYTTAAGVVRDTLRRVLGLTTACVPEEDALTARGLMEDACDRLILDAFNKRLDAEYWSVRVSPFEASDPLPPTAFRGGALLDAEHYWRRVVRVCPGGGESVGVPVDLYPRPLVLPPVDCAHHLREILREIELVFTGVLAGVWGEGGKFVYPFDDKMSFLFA
T1 sequence (P10236 whole entry): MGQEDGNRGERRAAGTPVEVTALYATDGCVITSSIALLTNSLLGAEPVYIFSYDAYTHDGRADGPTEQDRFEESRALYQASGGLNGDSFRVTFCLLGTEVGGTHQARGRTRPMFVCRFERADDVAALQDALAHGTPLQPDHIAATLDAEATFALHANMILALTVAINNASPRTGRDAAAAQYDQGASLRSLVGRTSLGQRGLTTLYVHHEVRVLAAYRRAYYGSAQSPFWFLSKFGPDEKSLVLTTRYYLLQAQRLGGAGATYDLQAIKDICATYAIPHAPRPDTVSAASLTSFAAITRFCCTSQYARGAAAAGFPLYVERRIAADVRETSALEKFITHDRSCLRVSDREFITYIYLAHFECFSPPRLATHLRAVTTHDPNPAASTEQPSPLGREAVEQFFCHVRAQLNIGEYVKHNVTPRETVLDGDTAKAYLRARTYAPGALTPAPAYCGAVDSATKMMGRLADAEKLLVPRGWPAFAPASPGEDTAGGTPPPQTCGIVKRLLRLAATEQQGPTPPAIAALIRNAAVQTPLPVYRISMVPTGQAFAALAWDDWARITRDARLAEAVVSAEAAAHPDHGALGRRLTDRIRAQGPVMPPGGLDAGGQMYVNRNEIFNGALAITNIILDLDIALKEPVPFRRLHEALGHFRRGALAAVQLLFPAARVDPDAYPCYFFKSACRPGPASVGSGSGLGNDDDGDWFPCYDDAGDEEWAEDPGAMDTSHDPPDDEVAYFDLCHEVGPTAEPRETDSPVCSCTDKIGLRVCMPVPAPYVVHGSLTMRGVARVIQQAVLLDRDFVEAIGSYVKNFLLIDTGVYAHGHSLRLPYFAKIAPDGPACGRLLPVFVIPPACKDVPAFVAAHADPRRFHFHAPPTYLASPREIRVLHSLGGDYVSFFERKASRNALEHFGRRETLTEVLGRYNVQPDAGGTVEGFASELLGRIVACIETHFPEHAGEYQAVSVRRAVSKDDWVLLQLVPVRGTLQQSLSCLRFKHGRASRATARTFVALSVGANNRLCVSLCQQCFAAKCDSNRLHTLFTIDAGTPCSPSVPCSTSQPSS
T1 sequence (P10189 whole entry): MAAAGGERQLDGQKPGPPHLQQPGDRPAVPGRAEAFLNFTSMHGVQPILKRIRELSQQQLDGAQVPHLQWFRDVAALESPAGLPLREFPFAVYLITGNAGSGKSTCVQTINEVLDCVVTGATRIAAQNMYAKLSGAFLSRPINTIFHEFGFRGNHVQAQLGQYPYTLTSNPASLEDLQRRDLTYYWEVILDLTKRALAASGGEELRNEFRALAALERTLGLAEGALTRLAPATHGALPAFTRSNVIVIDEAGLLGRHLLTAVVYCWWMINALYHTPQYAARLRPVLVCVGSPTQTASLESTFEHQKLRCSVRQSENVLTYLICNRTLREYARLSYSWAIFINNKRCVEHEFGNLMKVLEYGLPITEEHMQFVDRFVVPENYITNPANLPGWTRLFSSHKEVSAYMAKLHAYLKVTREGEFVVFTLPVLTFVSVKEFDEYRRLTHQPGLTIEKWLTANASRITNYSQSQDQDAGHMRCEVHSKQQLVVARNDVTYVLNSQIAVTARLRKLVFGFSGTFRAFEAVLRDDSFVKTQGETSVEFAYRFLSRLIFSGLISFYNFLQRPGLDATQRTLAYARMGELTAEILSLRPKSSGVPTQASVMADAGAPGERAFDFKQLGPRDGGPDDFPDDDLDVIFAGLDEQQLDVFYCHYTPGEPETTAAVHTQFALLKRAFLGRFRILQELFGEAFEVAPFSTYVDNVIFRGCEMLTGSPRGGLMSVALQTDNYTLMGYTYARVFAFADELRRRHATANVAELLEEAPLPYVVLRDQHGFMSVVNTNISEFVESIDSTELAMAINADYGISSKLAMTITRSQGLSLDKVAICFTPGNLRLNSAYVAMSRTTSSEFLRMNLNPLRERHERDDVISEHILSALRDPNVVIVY

One may read the IC50 as the concentration that gives 50% inhibition. The EC50 is the concentration that produces a half-maximal response. Read a low EC50 as an effect from little substance. In experiment [1], `Nc1nc(-c2ccc(NC(=O)CN(Cc3ccc(Cl)c(I)c3)C(=O)c3ccncc3)cc2)cs1` [Example 70] yielded an IC50 of 570 nM. Also, the EC50 in experiment [2] was found to be 160 nM.
The like results for `[N-]=[N+]=Nc1ccc(C(=O)N(CC(=O)Nc2ccc(-c3csc(N)n3)cc2)Cc2ccccc2)cc1` [Example 74] were, in that order, 280 nM and 120 nM.
The matching figures for `CN(C)c1cccc2c(S(=O)(=O)N(CC(=O)Nc3ccc(-c4csc(N)n4)cc3)Cc3ccncc3)cccc12` [Example 99]: 1600 nM and 670 nM.
The matching figures for `Nc1nc(-c2ccc(NC(=O)CN(Cc3ccccc3Cl)C(=O)c3ccncc3)cc2)cs1` [Example 145]: 390 nM and 19 nM.
With `Nc1nc(-c2ccc(NC(=O)CN(Cc3cccc(Cl)c3)C(=O)c3ccncc3)cc2)cs1` [Example 146], in experiment [1], it took 150 nM to reach half-maximal inhibition (IC50). This molecule also came in with an EC50 in experiment [2] of 5 nM.
The matching figures for `Nc1nc(-c2ccc(NC(=O)CN(Cc3cccc(F)c3)C(=O)c3ccncc3)cc2)cs1` [Example 147]: 350 nM and 22 nM.
The like results for `COc1ccccc1CN(CC(=O)Nc1ccc(-c2csc(N)n2)cc1)C(=O)c1ccncc1` [Example 148] were, in that order, 380 nM and 25 nM.
Molecule `COc1cccc(CN(CC(=O)Nc2ccc(-c3csc(N)n3)cc2)C(=O)c2ccncc2)c1` [Example 149] gave a concentration for half-maximal inhibition (IC50) in experiment [1] of 450 nM. In experiment [2], this molecule returned an EC50 of 55 nM.
`COc1ccc(CN(CC(=O)Nc2ccc(-c3csc(N)n3)cc2)C(=O)c2ccncc2)cc1` [Example 150] had a concentration for half-maximal inhibition (IC50) in experiment [1] of 2000 nM. In addition, in experiment [2], the EC50 was 120 nM.
The molecule `Cc1cccc(CN(CC(=O)Nc2ccc(-c3csc(N)n3)cc2)C(=O)c2ccncc2)c1` [Example 151] displayed an IC50 in experiment [1] of 76 nM. Moreover, a half-maximal response in experiment [2] (EC50) required 11 nM.
Take `Cc1ccc(CN(CC(=O)Nc2ccc(-c3csc(N)n3)cc2)C(=O)c2ccncc2)cc1` [Example 152]: half-maximal inhibition in experiment [1] (IC50) was put at 1600 nM. Also, in experiment [2], the concentration for a half-maximal effect (EC50) was 77 nM.
Regarding `Nc1nc(-c2ccc(NC(=O)CN(Cc3c(F)cccc3F)C(=O)c3ccncc3)cc2)cs1` [Example 153], it took 1900 nM to reach half-maximal inhibition in experiment [1] (IC50). This molecule also had an EC50 in experiment [2] of 190 nM.
In turn, `Cc1cccc(CN(CC(=O)Nc2ccc(-c3csc(N)n3)cc2)C(=O)c2ccncc2)c1C` [Example 154] gave an IC50 in experiment [1] of 41 nM. The same molecule yielded a 50% effective concentration (EC50) in experiment [2] of 5 nM.
Regarding `Cc1ccc(C)c(CN(CC(=O)Nc2ccc(-c3csc(N)n3)cc2)C(=O)c2ccncc2)c1` [Example 155], in experiment [1], the IC50 was 200 nM. Moreover, the concentration for a half-maximal effect (EC50) in experiment [2] was determined as 11 nM.
The like results for `Cc1cccc(C)c1CN(CC(=O)Nc1ccc(-c2csc(N)n2)cc1)C(=O)c1ccncc1` [Example 156] were, in that order, 3500 nM and 420 nM.
The matching figures for `Cc1cc(C)cc(CN(CC(=O)Nc2ccc(-c3csc(N)n3)cc2)C(=O)c2ccncc2)c1` [Example 157]: 40 nM and 10 nM.
Turning to `Nc1nc(-c2ccc(NC(=O)CN(CCc3ccccn3)C(=O)c3ccncc3)cc2)cs1` [Example 158], in experiment [1], the IC50 amounted to 1800 nM. For the same molecule, in experiment [2], the EC50 amounted to 440 nM.
`Nc1nc(-c2ccc(NC(=O)CN(Cc3cccs3)C(=O)c3ccncc3)cc2)cs1` [Example 159] registered an IC50 in experiment [1] of 1700 nM. Also, a half-maximal effect in experiment [2] (EC50) was put at 210 nM.
The like results for `Nc1nc(-c2ccc(NC(=O)CN(CCc3cccs3)C(=O)c3ccncc3)cc2)cs1` [Example 160] were, in that order, 680 nM and 51 nM.
`Nc1nc(-c2ccc(NC(=O)CN(Cc3cscn3)C(=O)c3ccncc3)cc2)cs1` [Example 161]: the IC50 in experiment [1] is 3400 nM. In experiment [2], this molecule yielded an EC50 of 530 nM.
As to `Cc1nc(CN(CC(=O)Nc2ccc(-c3csc(N)n3)cc2)C(=O)c2ccncc2)cs1` [Example 162], the IC50 in experiment [1] came out at 2500 nM. Further, the EC50 in experiment [2] turned out to be 69 nM.
The like results for `Nc1nc(-c2ccc(NC(=O)CN(CCc3nccs3)C(=O)c3ccncc3)cc2)cs1` [Example 163] were, in that order, 2400 nM and 680 nM.
With `Nc1nc(-c2ccc(NC(=O)CN(CCc3cscn3)C(=O)c3ccncc3)cc2)cs1` [Example 164], the IC50 in experiment [1] stood at 3000 nM. The same molecule returned an EC50 in experiment [2] of 61 nM.
`Cc1nc(CCN(CC(=O)Nc2ccc(-c3csc(N)n3)cc2)C(=O)c2ccncc2)cs1` [Example 165] showed a half-inhibitory concentration (IC50) in experiment [1] of 4600 nM. The midpoint of the response in experiment [2], the EC50, lay at 1100 nM.
`Cc1ccn(C)c1C(=O)N(CC(=O)Nc1ccc(-c2csc(N)n2)cc1)Cc1ccccc1` [Example 166]: in experiment [1], half-maximal inhibition (IC50) required 430 nM. In addition, it took 30 nM to reach a half-maximal effect in experiment [2] (EC50).
The like results for `Cc1cnccc1C(=O)N(CC(=O)Nc1ccc(-c2csc(N)n2)cc1)Cc1ccccc1` [Example 167] were, in that order, 140 nM and 31 nM.
`Cc1cc(C(=O)N(CC(=O)Nc2ccc(-c3csc(N)n3)cc2)Cc2ccccc2)cc(C)n1` [Example 168] showed an IC50 in experiment [1] of 2900 nM. In addition, in experiment [2], the EC50 was found to be 450 nM.
The like results for `Nc1nc(-c2ccc(NC(=O)CN(Cc3ccccc3)C(=O)c3ccncn3)cc2)cs1` [Example 169] were, in that order, 1400 nM and 150 nM.
Molecule `Nc1nc(-c2ccc(NC(=O)CN(Cc3ccccc3)C(=O)c3cscn3)cc2)cs1` [Example 170] had an IC50 in experiment [1] of 700 nM. Also, the EC50 in experiment [2] was found to be 1500 nM.
The like results for `Nc1nc(C(=O)N(CC(=O)Nc2ccc(-c3csc(N)n3)cc2)Cc2ccccc2)cs1` [Example 171] were, in that order, 460 nM and 92 nM.
Consider `Cc1nc(C(=O)N(CC(=O)Nc2ccc(-c3csc(N)n3)cc2)Cc2ccccc2)cs1` [Example 172], for which the midpoint of inhibition in experiment [1], the IC50, lay at 1600 nM. The EC50 in experiment [2] came to 360 nM.
The matching figures for `Cc1nc(C)c(C(=O)N(CC(=O)Nc2ccc(-c3csc(N)n3)cc2)Cc2ccccc2)s1` [Example 173]: 950 nM and 50 nM.
Molecule `Nc1nc(-c2ccc(NC(=O)CN(CCc3ccncc3)C(=O)c3ccncc3)cc2)cs1` [Example 174] yielded an IC50 in experiment [1] of 9200 nM. In experiment [2], the response was half-maximal at 6600 nM (EC50).
